Publication PMC5382548 (Scientific Reports, 2015)
pIC50: −log10 of the molar value. “Also recorded” adds a separate entry of the source.

Tests used:
[1] = test system: Panc1 (chemo-resistant pancreatic); experiment: SRB short-term cytotoxicity assay, Panc1; format: cell-based; details: Homo sapiens, PANC-1, 96 h
Procedure: (§1) Short-term anti-proliferative assays were carried out by two different assays using a panel of human cancer and non-malignant human cell lines. […] The transformed human embryonic kidney cell line HEK293T (wt KRAS) was sensitive to all tested drugs, including TMPyP4, a cationic porphyrin established as a G4 ligand, as well as the anticancer drug 5-fluorouracil (5-FU).
(§2) Human cell lines, breast carcinoma (MCF7), lung carcinoma (A549), pancreatic cancer (MIA PaCa2, Panc-1), immortalised telomerase-negative human lung fibroblast (ALT) and normal human lung fibroblast (WI-38), were all purchased from American Type Cell Culture (ATCC). Cell lines were maintained in appropriate medium supplemented with 10% fetal bovine serum (Invitrogen, UK), 2 mM L-glutamine (Invitrogen, Netherlands), and other components as specified by the suppliers. All cell lines were maintained at 37°C, 5% CO2, and routinely passaged. Short-term growth inhibition was measured using the SRB assay as described previously[43] (additional details described in Supplementary Information). […]
(§3) Sulforhodamine B (SRB) short-term cytotoxicity assay
(§4) Cells were seeded at appropriate densities into the wells of 96 well plates in their corresponding medium and incubated overnight to allow the cells to attach. Subsequently cells were exposed to various concentrations of freshly made solutions of drugs and incubated for 96 h. The cells were subsequently fixed with ice-cold trichloacetic acid (TCA) (10%, w/v) for 30 min and stained with 0.4% SRB dissolved in 1% acetic acid for 15 min.
(§5) All incubations were carried out at room temperature except for TCA fixation, which was at 4 °C. The IC50 value, the concentration required to inhibit cell growth by 50%, was determined from the mean absorbance at 540 nm for each drug concentration expressed as a percentage of the control untreated well absorbance. (Performed at School of Pharmacy, University College of London). […]
(§6) (#sc-30/sc-126; Santa Cruz Biotechnology Inc., Santa Cruz, CA, USA). […]

WI-38 (lung fibroblast) = experiment: SRB short-term cytotoxicity assay, WI-38; format: cell-based; details: Homo sapiens, 96 h
Procedure: as §1, §2, §3, §4, §5, §6

[2] = test system: KRAS mRNA in HCT116 cells; experiment: KRAS mRNA steady-state levels, Taqman real-time RT-PCR, HCT116; format: cell-based, human; details: 72 h; for Reduction of KRAS mRNA steady-state levels, HCT116: equitoxic (IC50) concentrations (TMPyP4 12 μM)
Procedure: The effects of compounds on KRAS transcription in colon cancer cells (HCT116 and SW620) were evaluated by quantifying KRAS mRNA steady-state levels using Taqman real-time RT-PCR.
(a) KRAS mRNA steady-state expression was evaluated by Taqman Real-time RT-PCR using specific Taqman Assays for KRAS and β-Actin for normalization. KRAS mRNA steady-state expression levels were calculated by the ΔΔCt method, using DMSO (vehicle control) for calibration; and (b) KRAS protein steady-state expression evaluated by immunoblot relative to control (DMSO vehicle) Results are expressed as mean ± SEM of at least three independent experiments; *p < 0.05 and §p < 0.01 from DMSO (vehicle control).
HCT116, SW620 and HEK293 T cells were seeded in 35 mm plates at 150000 cells per well. […] After 72 h of compound exposure, cells were collected and processed for total RNA extraction using TRIZOL reagent (Invitrogen) according to the manufacturer's instructions. Samples were homogenized in TRIZOL reagent using a motor-driven Bio-vortexer (No1083; Biospec Products, Bartlesfield, OK) and disposable RNAse/DNAse free sterile pestles (Thermo Fisher Scientific, Inc., Chicago, IL). […] Evaluation of steady-state expression of KRAS mRNA was performed by Taqman Real-time PCR assay, detailed in Supplementary Information.
Total RNA extraction and Taqman real-time RT-PCR
Taqman Real-time PCR reactions were performed using 1.5 µg of total RNA, using High Capacity RNA to cDNA kit, according to the manufacturer`s instruction. Next, Real-time PCR reactions were performed using Taqman Universal Master Mix II, no UNG, and primers specific to human KRAS (assay ID Hs00000174_rf, # 4465807) primers and to Human β- Actin (ACTB # 401846) for normalization to endogenous control (both from Applied Biosystems Inc). Triplicate reactions were run per sample. Data was collected with 7300 System Sequence Detection Software, version 1.2.3 (Applied Biosystems Inc). The comparative threshold cycle method was used to calculate the amplification factor, where the threshold cycle (Ct) is defined as the cycle number at which the fluorescence passes the fixed threshold intensity level. KRAS expression levels in different samples were calculated on the basis of ΔΔCt method. For each cell line, vehicle control (DMSO) was used as the calibrator. The n-fold change in KRAS expression was obtained using the formula: 2-ΔΔCt. […]
SW620 and HEK293 T cells were seeded in 24-well plates 50,000cells/well. Twenty-four hours later, cells were exposed to compounds for 72 h. After treatment, cell culture supernatants were collected and adherent cells were detached with TrypLE (Invitrogen).
Next, detached cells were pooled with cell culture supernatants and centrifuged for 5 min (650 g). […]

In the case of Cn1cc2c3ccccc3nc-2c2cc(Br)ccc21 [2a, 2-bromo-5-methyl-indolo[3,2-c]quinoline], the pIC50 [1] was 5.56 and the pIC50 (WI-38 (lung fibroblast)) was 5.20.
For CCN(CC)CCCNc1ccc2c(c1)c1[nH]c3ccccc3c1c[n+]2C [2d], the pIC50 [1] was 6.66, the pIC50 (WI-38 (lung fibroblast)) was 5.31 and the “KRAS mRNA levels reduced to (% remaining)” value ([2]; IC50 concentration, cell line not given) was ~ 10%. The “Reduction of KRAS mRNA steady-state levels, HCT116” value (from here on “Reduction”) [2] was 90%.
For CCN(CC)CCCNc1ccc2[nH]c3c(c[n+](C)c4ccc(NCCCN(CC)CC)cc34)c2c1.[Cl-] [3d], the “Reduction” value [2] was 25%.
Compound CCN(CC)CCCNc1ccc2c(c1)[nH]c1c2c[n+](C)c2ccc(NCCCN(CC)CC)cc12.[Cl-] [3e] has a pIC50 [1] of 5.32 and a pIC50 (WI-38 (lung fibroblast)) of 5.00.
For C[n+]1ccc(-c2c3nc(c(-c4cc[n+](C)cc4)c4ccc([nH]4)c(-c4cc[n+](C)cc4)c4ccc([nH]4)c(-c4cc[n+](C)cc4)c4nc2C=C4)C=C3)cc1 [TMPyP4, reference compound], the “Reduction” value [2] was “no ability to repress KRAS transcription; also recorded: did not inhibit KRAS transcription”.
